The target in one data set is T1, KAT6A (Homo sapiens, UniProt Q92794).
T1 construct: purchased Active Motif
Description: KAT6A biochemical assay (radiometric [3H]-acetyl CoA, biotinylated H4 (1-30) peptide). The note with it: 60 min reaction, room temperature. As to the method: Inhibition of KAT6A enzymatic activity by test compounds was determined using a radiometric 384-well format assay. A 10-point serial dilution of the test compounds were conducted in DMSO and then a volume of 200 nL was transferred into 384-well assay plate by Echo (Labcyte). 10 μL of 2×enzyme solution (5 nM KAT6A (Active Motif) in assay buffer (50 mM Tris —HCl pH 8.0, 50 mM KCl, 0.1 mM EDTA, 5% glycerol, 1 mM DTT)) was dispensed into assay plate except for low control wells, in which 10 μL of assay buffer was transferred. The plate was incubated at room temperature for 15 min before addition of 10 μL of 2×[^3H]-acetyl coenzyme A (Ac-COA) and substrate peptide mix solution (500 nM (KAT6A) [^3H]-Ac-COA (PerkinElmer) and 800 nM (KAT6A) biotinylated H4 (1-30) peptide (GL Biochem) in assay buffer) to each well to start reaction. The plate was incubated at room temperature for 60 min (KAT6A), and then the reaction was stopped by adding 10 μL of stop solution (cold Ac-COA (Cayman) in 1×assay buffer). […] The plate was read on Microbeta and the inhibition percentage of each compound treated well was calculated based on the equation inh %=(Max-sample)/(Max-Min)*100 where Max is signal from high control wells with enzyme, and Min is signal from low control wells with assay buffer only. […]

Data set [1] can be described thus: Kinetic solubility in 50 mM phosphate buffer (pH 7.4). The format is physicochemical. The note with it: versus compound 47. On the procedure: 10 μL of 10 mM in DMSO of test and control compounds was added into lower chambers of whatman miniuniprep vials, respectively. 490 μL of 50 mM PB (pH 7.4) was added into lower chambers of the whatman miniuniprep vials, respectively. The solubility samples were vortexted for at least 2 minutes. The miniuniprep vials were shaken on a shaker for 24 hours at room temperature at the speed of 800 rpm and then centrifuged for 20 minutes (eg. 4000 rpm). The miniunipreps were compressed to prepare the filtrates for injection into HPLC system to calculate the concentration with standard curve.

The next data set deals with Caco-2 cells. As to the kind of experiment: Permeability, Caco-2 assay. The format is in vitro ADME. To be noted: for Mean Papp A to B: Caco-2, pH 7.40, 2 hours, 37 °C. As to the method: Permeability of test compounds was determined in Caco-2 Assay. Caco-2 cells purchased from ATCC were seeded onto […] membranes (PET) in 96-well Corning Insert plates at 1×10^5 cells/cm^2, and refreshed medium every 4~5 days until to the 21st to 28th day for confluent cell monolayer formation. The transport buffer in the study was HBSS with 10.0 mM HEPES at pH 7.40±0.05. Test compound was tested at […] bi-directionally in duplicate. Digoxin was tested at 10.0 μM bi-directionally in duplicate, while nadolol and metoprolol were tested at 2.00 μM in A to B direction in duplicate. Final DMSO concentration was adjusted to less than 1%. The plate was incubated for 2 hours in CO2 incubator at 37±1° C., with 5% CO2 at saturated humidity without shaking. And all samples after mixed with acetonitrile containing internal standard were centrifuged at 3200×g for 10 min. For nadolol and metoprolol, 200 μL supernatant solution was diluted with 600 μL ultra-pure water for LC-MS/MS analysis. For digoxin and test compounds, 200 μL supernatant solution was diluted with 200 μL ultra-pure water for LC-MS/MS analysis. Concentrations of test and control compounds in starting solution, donor solution, and receiver solution were quantified by LC-MS/MS methodologies, using peak area ratio of analyte/internal standard. After transport assay, lucifer yellow rejection assay was applied to determine the Caco-2 cell monolayer integrity.
On the technique in general: Caco-2 monolayers are a common model of the intestinal barrier.

The test system of data set [2] is LD1-0009-362391 PDX model. The arrangement: species or system NCG Mice. To be noted: mouse, in vivo. As to the method: About 50-90 mg tumor pieces were implanted subcutaneously on the right flank of each mouse. The treatments were started when the mean tumor size reaches approximately 150 (100-300) mm^3. The tumor size was measured in two dimensions using a caliper, and the volume was expressed in mm^3 using the formula: V=0.5 a×b^2 where a and b are the long and short diameters of the tumor, respectively.
(§1) Mice were assigned into groups using randomized block design based on their tumor volumes. The test article administration and the animal numbers in each study group are shown in the following experimental design table 5, the PDX model information are shown in the table 6.
The PDX model is derived from a patient with invasive breast carcinoma, who received and progressed on multiple prior lines of treatment including docetaxel, epirubicin, cyclophosphamide, gemcitabine, lobaplatin, tamoxifen, nab-paclitaxel, cisplatin, capecitabine, palbociclib and letrozole.
(§2) For routine monitoring, all study animals were monitored for not only tumor growth but also behavior such as mobility, food, and water consumption (by cage side checking only), body weight (BW), eye/hair matting and any other abnormal effect. Any mortality and/or abnormal clinical signs were recorded.
The measurement of tumor size was conducted twice a week. The tumor size was measured in two dimensions using a caliper, and the volume will be expressed in mm^3 using the formula: V=0.5a×b^2 where a and b are the long and short diameters of the tumor, respectively. The tumor sizes are used for the calculations of T/C values. The T/C value (in percent) is an indication of antitumor efficacy, T/C=RTV of treated group/RTV of Control group, RTV=Vt/V0, Vt is the mean volume after treatment on a given day, V0 is the mean tumor volume at the beginning of administration. Meanwhile the tumor volume is used for calculation of TGI of each group according to the following formula: When Tti−Tt0 >0, TGI (%)=[1−(Tti−Tt0)/(Vci−Vc0)]×100; when Tti−Tt0<0, TGI (%)=[1−(Tti−Tt0)/Tt0]×100. […]

The nature of data set [3]: Body weight change in PDX study in NCG mice. It counts as in vivo. To be noted: P.O QD × 27; all mice.
Source text: as §1, §2
Body weights of all animals were measured twice a week throughout the study. Body weight change, expressed in %, is calculated using the following formula: BWL (%)=(BWi−BW0)/BW0×100, BWi is the body weight, BW0 is the bodyweight on the first day of treatment.
The statistical software GraphPad Prism was used to analyze the difference in tumor volume and body weight between the treatment group and the vehicle control group. All the data is described as Mean±SEM, and one-way ANOVA analysis of variance was performed.

For data set [4], the system named is ER+/KAT6a^high ZR-75-1 breast cancer cell line. Description: In vitro cytotoxicity in ER+/KAT6a^high ZR-75-1 breast cancer cell line (CTG assay, 14 days). It counts as cell-based, Human. On the procedure:
Single agent experiments (n=3 per each compound) were performed to obtain the IC10, IC25, IC50 and IC75 values for each drug to be used hereafter in the combo treatment.
The cytotoxicity was evaluated by CTG assay upon 14 days of treatment and stimulation with 1 nM E2. Statistical analysis was performed by 2 way ANOVA Tukey's multiple comparison test (* 0.01<p<0.05).
Human ER+/KAT6A^high breast cancer cell line ZR-75-1 (ATCC, Virginia, US) was cultured in RPMI 1640 medium (Gibco, Life Technologies, Carlsbad, CA, USA) supplemented with 10% fetal bovine serum (FBS)(Sigma, Saint Louis, CA, USA). All cells were incubated at 37° C., 5% CO2, 80-95% relative humidity.
Stock solutions were added at appropriate concentration in culture medium before the addition to cells.
For the cytotoxicity assay, cells were previously starved 48 h in RPMI 1640 no phenol red supplemented with 8% charcoal stripped FBS, and then seeded at appropriate density (2000 cells/well) in starvation media the day before starting the treatment. […] Concentration range was previously identified in single agent cytotoxic assay for the same time points in order to include in the combination experiment IC10, IC25, IC50 and IC75 values for each drug. After 14 days of treatment, CellTiter-Glo® 2.0 Cell Viability Assay (CTG)(Promega, Madison, WI, USA) was added to assess cell viability. Luminescence was measured 10 min later using Tecan Infinite M200 (Tecan Trading AG, Switzerland).

Where “and” joins values, the source holds several entries; their conditions need not be identical. Equal values may be shown once. Read-outs that look alike come from different tables or passages of the source.

T1 sequence (Q92794 whole entry): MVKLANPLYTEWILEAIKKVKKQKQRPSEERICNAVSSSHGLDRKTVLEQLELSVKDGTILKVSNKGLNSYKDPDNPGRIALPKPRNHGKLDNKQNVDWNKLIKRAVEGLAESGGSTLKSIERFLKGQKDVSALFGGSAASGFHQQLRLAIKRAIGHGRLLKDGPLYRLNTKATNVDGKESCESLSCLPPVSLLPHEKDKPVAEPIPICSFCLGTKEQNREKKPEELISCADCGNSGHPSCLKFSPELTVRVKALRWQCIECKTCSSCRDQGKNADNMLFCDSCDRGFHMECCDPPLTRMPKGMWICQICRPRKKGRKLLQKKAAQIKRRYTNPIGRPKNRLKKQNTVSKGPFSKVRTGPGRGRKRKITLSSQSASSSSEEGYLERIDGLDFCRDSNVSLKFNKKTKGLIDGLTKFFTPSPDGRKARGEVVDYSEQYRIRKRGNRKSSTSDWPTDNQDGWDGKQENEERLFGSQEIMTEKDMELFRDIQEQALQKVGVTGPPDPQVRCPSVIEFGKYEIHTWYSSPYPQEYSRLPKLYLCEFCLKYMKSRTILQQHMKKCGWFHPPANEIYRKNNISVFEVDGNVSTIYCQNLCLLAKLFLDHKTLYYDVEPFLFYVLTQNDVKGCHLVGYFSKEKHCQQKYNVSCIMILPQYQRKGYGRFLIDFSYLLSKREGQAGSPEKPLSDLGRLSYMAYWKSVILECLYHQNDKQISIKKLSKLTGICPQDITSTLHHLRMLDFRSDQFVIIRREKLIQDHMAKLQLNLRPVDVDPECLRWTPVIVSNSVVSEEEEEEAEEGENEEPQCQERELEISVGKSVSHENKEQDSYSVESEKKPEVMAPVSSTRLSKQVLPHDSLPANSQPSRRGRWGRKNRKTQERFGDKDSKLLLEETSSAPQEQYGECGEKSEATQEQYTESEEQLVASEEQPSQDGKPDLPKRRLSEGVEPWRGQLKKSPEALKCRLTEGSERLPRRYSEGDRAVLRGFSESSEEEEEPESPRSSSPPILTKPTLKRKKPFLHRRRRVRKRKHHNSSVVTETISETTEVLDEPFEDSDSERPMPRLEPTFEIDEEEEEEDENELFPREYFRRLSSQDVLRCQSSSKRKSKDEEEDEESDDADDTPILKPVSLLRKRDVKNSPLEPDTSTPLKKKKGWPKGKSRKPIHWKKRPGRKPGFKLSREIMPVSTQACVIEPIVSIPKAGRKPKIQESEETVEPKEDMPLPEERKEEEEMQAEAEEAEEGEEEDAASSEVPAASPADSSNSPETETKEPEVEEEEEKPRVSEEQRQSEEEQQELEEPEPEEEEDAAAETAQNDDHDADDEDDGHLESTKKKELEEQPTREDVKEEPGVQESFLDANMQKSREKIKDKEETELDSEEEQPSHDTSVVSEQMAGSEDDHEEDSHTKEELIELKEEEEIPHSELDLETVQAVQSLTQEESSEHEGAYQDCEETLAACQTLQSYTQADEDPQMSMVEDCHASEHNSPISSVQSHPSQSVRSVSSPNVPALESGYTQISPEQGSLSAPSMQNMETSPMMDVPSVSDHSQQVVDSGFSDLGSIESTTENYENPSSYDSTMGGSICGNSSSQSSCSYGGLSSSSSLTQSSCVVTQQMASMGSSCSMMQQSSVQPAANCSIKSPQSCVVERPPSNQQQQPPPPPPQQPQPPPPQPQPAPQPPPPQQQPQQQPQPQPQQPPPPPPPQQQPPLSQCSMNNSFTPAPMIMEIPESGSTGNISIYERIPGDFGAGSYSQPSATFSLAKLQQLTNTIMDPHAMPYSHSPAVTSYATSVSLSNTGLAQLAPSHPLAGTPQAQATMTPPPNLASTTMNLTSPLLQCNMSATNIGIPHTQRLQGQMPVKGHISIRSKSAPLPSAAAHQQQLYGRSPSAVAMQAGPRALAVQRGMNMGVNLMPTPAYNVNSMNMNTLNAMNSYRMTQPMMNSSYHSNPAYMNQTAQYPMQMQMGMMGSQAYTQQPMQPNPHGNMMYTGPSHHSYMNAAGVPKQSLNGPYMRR

The molecule `COc1ccccc1S(=O)(=O)Nc1noc2cc(Oc3ccccn3)cc(OC(F)F)c12` [Compound 27, N-(4-(difluoromethoxy)-6-(pyridin-2-yloxy)benzo[d]isoxazol-3-yl)-2-methoxybenzenesulfonamide] registered an IC50 against KAT6A of 100 to 1000 nM.

On KAT6A, `COc1cccc(OC)c1S(=O)(=O)Nc1noc2cc(Oc3cccnn3)cc(OC(F)F)c12` [Compound 29, N-(4-(difluoromethoxy)-6-(pyridazin-3-yloxy)benzo[d]isoxazol-3-yl)-2,6-dimethoxybenzenesulfonamide] yielded an IC50 of 100 to 1000 nM.

Take `COc1cccc(OC)c1S(=O)(=O)Nc1noc2cc(Oc3nccs3)c3c(c12)OCCC3` [Compound 35, 2,6-dimethoxy-N-(5-(thiazol-2-yloxy)-3,4-dihydro-2H-chromeno[8,7-d]isoxazol-9-yl)benzenesulfonamide]: in data set [1], the “kinetic solubility, comparison with otherwise identical compound having X as carbon” value is given as “improved kinetic solubility”. Further, the “Mean Papp A to B” value in the data set with Caco-2 cells is 8.59 10^-6 cm/s. Moreover, the “permeability, comparison with corresponding compound having X as carbon” value in the data set on Caco-2 cells (versus compound 47) is recorded as “improved permeability”.

`COc1cc(C)nc(OC)c1S(=O)(=O)Nc1noc2cc(Oc3nccs3)cc(OC)c12` [Compound 57, 2,4-dimethoxy-N-(4-methoxy-6-(thiazol-2-yloxy)benzo[d]isoxazol-3-yl)-6-methylpyridine-3-sulfonamide]: the “Mean Papp A to B” value in the data set with Caco-2 cells is on record as 3.38 10^-6 cm/s. In data set [2], the TGI was 67.7% and 83.8%; the anti-tumor activity entry is “potent and dose-dependent anti-tumor activity”; the “mean endpoint TV (tumor volume)” value is 239 mm^3 and 189 mm^3. The body weight entry in data set [3] is reported as “maintained the body weight well”. In addition, the IC50 in data set [4] (combination experiments, compound alone, 1 nM E2 (FIG. 3B), read-out: IC50 of dose-response curve, used alone (combination experiments)) was found to be 3.78 nM. Further, in data set [4] (single agent, 1 nM E2), the IC10 is recorded as 0.3 nM, the IC25 was found to be 1.2 nM and the IC75 was 15 nM. Besides, in data set [4] (single agent, 1 nM E2, read-out: IC50), the IC50 was determined as 4 nM. Also, the IC50 in data set [4] (with elacestrant (IC25, 56 nM), 1 nM E2 (FIG. 3B), read-out: IC50 of dose-response curve, in combination with elacestrant) was determined as 0.8 nM.

Usually IC50 stands for the concentration that gives 50% inhibition. As usually defined, the IC10 is the point of the concentration-response curve where the effect stands at 10%. For orientation: IC25 means the concentration needed for an effect of 25%. A word on the IC75: it is the concentration at which the effect reaches the 75% level.

The values above are taken from patent publication US20260294884A1 (Insilico Medicine IP Limited, priority 2023, published 2026).
